# Target: T1, Full-length USP19 (Homo sapiens, UniProt O94966)
# T1 construct: Full-length USP19 was purchased from Boston Biochem (E-576); purchased Boston Biochem E-576
# T1 sequence (O94966 1-1318): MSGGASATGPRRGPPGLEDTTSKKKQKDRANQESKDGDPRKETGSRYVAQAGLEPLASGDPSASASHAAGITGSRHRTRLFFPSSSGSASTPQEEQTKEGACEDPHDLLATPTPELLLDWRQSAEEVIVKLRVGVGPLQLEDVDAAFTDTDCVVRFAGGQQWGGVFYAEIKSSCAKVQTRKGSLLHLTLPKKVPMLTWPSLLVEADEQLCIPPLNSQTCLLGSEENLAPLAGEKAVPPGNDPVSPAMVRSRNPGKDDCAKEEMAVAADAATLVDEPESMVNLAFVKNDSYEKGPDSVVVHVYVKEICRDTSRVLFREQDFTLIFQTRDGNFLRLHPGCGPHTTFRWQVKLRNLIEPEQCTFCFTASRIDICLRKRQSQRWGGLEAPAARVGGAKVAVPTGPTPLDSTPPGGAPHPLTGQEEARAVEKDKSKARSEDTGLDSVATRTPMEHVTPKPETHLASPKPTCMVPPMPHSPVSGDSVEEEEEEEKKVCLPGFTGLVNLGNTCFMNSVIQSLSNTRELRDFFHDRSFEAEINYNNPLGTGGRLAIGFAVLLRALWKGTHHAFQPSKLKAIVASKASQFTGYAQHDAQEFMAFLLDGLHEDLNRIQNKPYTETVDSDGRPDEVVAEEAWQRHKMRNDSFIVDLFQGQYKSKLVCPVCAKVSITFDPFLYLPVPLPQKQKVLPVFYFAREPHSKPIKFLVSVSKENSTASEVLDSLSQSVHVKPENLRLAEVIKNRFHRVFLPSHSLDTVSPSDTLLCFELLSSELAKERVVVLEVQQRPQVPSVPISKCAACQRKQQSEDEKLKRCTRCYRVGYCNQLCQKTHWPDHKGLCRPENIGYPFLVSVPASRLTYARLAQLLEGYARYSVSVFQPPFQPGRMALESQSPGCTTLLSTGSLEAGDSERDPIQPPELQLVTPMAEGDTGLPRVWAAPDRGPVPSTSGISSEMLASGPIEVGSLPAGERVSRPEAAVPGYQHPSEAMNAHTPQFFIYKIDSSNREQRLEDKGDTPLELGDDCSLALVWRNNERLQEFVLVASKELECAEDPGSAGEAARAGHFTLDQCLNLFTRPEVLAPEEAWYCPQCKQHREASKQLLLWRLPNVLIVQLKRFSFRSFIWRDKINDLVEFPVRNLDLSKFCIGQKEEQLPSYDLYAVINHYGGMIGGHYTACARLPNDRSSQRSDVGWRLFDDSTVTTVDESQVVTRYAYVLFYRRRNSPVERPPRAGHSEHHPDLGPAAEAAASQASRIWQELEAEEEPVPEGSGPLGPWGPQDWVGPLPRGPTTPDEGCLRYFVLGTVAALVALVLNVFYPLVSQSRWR
# Assay: USP19 fluorescence polarisation (FP) assay, Ubiquitin-Lys-TAMRA substrate
# Assay type: biochemical
# Conditions: average of at least two duplicate experiments
# In short: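 Fluorescence polarisation (excitation 530 nm, parallel and perpendicular emission at 575 nm) was recorded every 15 min for 90 min after adding the ubiquitin-Lys-TAMRA isopeptide (500 nM as dispensed). Beforehand, the full-length enzyme (2.5 nM as dispensed) sat 30 min at RT with compound diluted from 200 μM to 2 μM in HEPES pH 7.4 buffer with 150 mM NaCl, 5 mM DTT, 0.05% BSA and 0.05% CHAPS. Values normalised to uninhibited wells gave IC50s by non-linear fitting, each the mean of two or more duplicate runs.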
row,Structure (SMILES),IC50
1,"CN(C)[C@@H]1CCN(C(=O)N2CC[C@@H](Cn3ccc(-c4ccccc4)cc3=O)C3(CCCC3)C2)[C@H](c2ccccc2)C1 [Example 46, 1-(((R)-7-((2S,4R)-4-(Dimethylamino)-2-phenylpiperidine-1-carbonyl)-7-azaspiro[4.5]decan-10-yl)methyl)-4-phenylpyridin-2(1H)-one]",10 to 100 nM
2,"CN[C@@H]1CCN(C(=O)N2CC[C@@H](Cn3cnc(-c4ccccc4)cc3=O)C3(CCCC3)C2)[C@H](c2cc(F)cc(F)c2)C1 [Example 122, 3-(((R)-7-((2S,4R)-2-(3,5-Difluorophenyl)-4-(methylamino)piperidine-1-carbonyl)-7-azaspiro[4.5]decan-10-yl)methyl)-6-phenylpyrimidin-4(3H)-one]",< 10 nM
3,"C[C@@]1(O)CCN(C(=O)N2CC[C@@H](Cn3ccc(-c4ccccc4)cc3=O)C3(CCCC3)C2)[C@H](c2ccccc2)C1 [Example 52, 1-(((R)-7-((2S,4R)-4-Hydroxy-4-methyl-2-phenylpiperidine-1-carbonyl)-7-azaspiro[4.5]decan-10-yl)methyl)-4-phenylpyridin-2(1H)-one]",100 to 1000 nM
4,"N[C@@H]1CCN(C(=O)N2CC[C@H](Cn3ccc(-c4ccccc4)cc3=O)C3(CCCC3)C2)[C@H](c2ccccc2)C1 [Example 24, 1-(((S)-7-((2S,4R)-4-Amino-2-phenylpiperidine-1-carbonyl)-7-azaspiro[4.5]decan-10-yl)methyl)-4-phenylpyridin-2(1H)-one]",1000 to 20000 nM
5,"CC(=O)N[C@@H]1CCN(C(=O)N2CC[C@@H](Cn3cnc4ccc(F)cc4c3=O)C3(CCCC3)C2)[C@H](c2cc(F)ccc2F)C1 [Example 172, N-((2S,4R)-2-(2,5-Difluorophenyl)-1-((R)-10-((6-fluoro-4-oxoquinazolin-3(4H)-yl)methyl)-7-azaspiro[4.5]decane-7-carbonyl)piperidin-4-yl)acetamide]",< 10 nM
6,"COc1ccccc1-c1cc(=O)n(C[C@@H]2CCN(C(=O)N3CCNC[C@H]3c3cc(F)ccc3F)CC23CCCC3)cn1 [Example 116, 3-(((R)-7-((R)-2-(2,5-Difluorophenyl)piperazine-1-carbonyl)-7-azaspiro[4.5]decan-10-yl)methyl)-6-(2-methoxyphenyl)pyrimidin-4(3H)-one]",< 10 nM
7,"COc1ccccc1-c1cc(=O)n(C[C@@H]2CCN(C(=O)N3CC[C@@H](NCC(F)F)C[C@H]3c3cc(F)ccc3F)CC23CCCC3)cn1 [Example 134, 3-(((R)-7-((2S,4R)-4-((2,2-Difluoroethyl)amino)-2-(2,5-difluorophenyl)piperidine-1-carbonyl)-7-azaspiro[4.5]decan-10-yl)methyl)-6-(2-methoxyphenyl)pyrimidin-4(3H)-one]",< 10 nM
8,"CN[C@@H]1CCN(C(=O)N2CC[C@@H](Cn3cnc(-c4ccccc4C)cc3=O)C3(CCCC3)C2)[C@H](c2cccc(F)c2F)C1 [Example 136, 3-(((R)-7-((2S,4R)-2-(2,3-Difluorophenyl)-4-(methylamino)piperidine-1-carbonyl)-7-azaspiro[4.5]decan-10-yl)methyl)-6-(0-tolyl)pyrimidin-4(3H)-one]",< 10 nM
9,"CCN[C@@H]1CCN(C(=O)N2CC[C@@H](Cn3ccc(Cl)cc3=O)C3(CCCC3)C2)[C@H](c2cc(F)ccc2F)C1 [Example 179, 4-Chloro-1-(((R)-7-((2S,4R)-2-(2,5-difluorophenyl)-4-(ethylamino)piperidine-1-carbonyl)-7-azaspiro[4.5]decan-10-yl)methyl)pyridin-2(1H)-one]",< 10 nM
10,"O=C(N1CC[C@@H](Cn2cnc(-c3ccccc3)cc2=O)C2(CCCC2)C1)N1CC[C@@H](NCc2ncccn2)C[C@H]1c1cc(F)ccc1F [Example 169, 3-(((R)-7-((2S,4R)-2-(2,5-Difluorophenyl)-4-((pyrimidin-2-ylmethyl)amino)piperidine-1-carbonyl)-7-azaspiro[4.5]decan-10-yl)methyl)-6-phenylpyrimidin-4(3H)-one]",< 10 nM
11,"CN[C@@H]1CCN(C(=O)N2CC[C@@H](Cn3ccc(-c4ccccc4)cc3=O)C3(CCCC3)C2)[C@H](c2cc(F)ccc2F)C1 [Example 91, 1-(((R)-7-((2S,4R)-2-(2,5-Difluorophenyl)-4-(methylamino)piperidine-1-carbonyl)-7-azaspiro[4.5]decan-10-yl)methyl)-4-phenylpyridin-2(1H)-one]",< 10 nM
12,N[C@@H]1CCN(C(=O)N2CC[C@H](Cn3cnc(-c4ccccc4)cc3=O)C3(CCCC3)C2)[C@H](c2ccccc2)C1 [Example 26],100 to 1000 nM
13,"CN[C@@H]1CCN(C(=O)N2CC[C@@H](Cn3cnc(-c4ccccc4C)cc3=O)C3(CCCC3)C2)[C@H](c2ccccc2)C1 [Example 84, 3-(((R)-7-((2S,4R)-4-(Methylamino)-2-phenylpiperidine-1-carbonyl)-7-azaspiro[4.5]decan-10-yl)methyl)-6-(o-tolyl)pyrimidin-4(3H)-one]",< 10 nM
14,"CN[C@@H]1CCN(C(=O)N2CC[C@@H](Cn3cccnc3=O)C3(CCCC3)C2)[C@H](c2ccc(F)cc2F)C1 [Example 128, 1-(((R)-7-((2S,4R)-2-(2,4-Difluorophenyl)-4-(methylamino)piperidine-1-carbonyl)-7-azaspiro[4.5]decan-10-yl)methyl)pyrimidin-2(1H)-one]",100 to 1000 nM
15,"O=C(O)[C@@H]1CCN(C(=O)N2CC[C@@H](Cn3cnc(-c4ccccc4)cc3=O)C3(CCCC3)C2)[C@H](c2ccccc2)C1 [Example 175, (2S,4R)-1-((R)-10-((6-oxo-4-phenylpyrimidin-1(6H)-yl)methyl)-7-azaspiro[4.5]decane-7-carbonyl)-2-phenylpiperidine-4-carboxylic acid]",100 to 1000 nM
16,"CN[C@@H]1CCN(C(=O)N2CC[C@@H](Cn3ccc(-c4ccccc4OC)cc3=O)C3(CCCC3)C2)[C@H](c2cccc(F)c2F)C1 [Example 131, 1-(((R)-7-((2S,4R)-2-(2,3-Difluorophenyl)-4-(methylamino)piperidine-1-carbonyl)-7-azaspiro[4.5]decan-10-yl)methyl)-4-(2-methoxyphenyl)pyridin-2(1H)-one]",< 10 nM
17,"CN[C@@H]1CCN(C(=O)N2CC[C@@H](Cn3cnc(-c4ccccc4OC)cc3=O)C3(CCCC3)C2)[C@H](c2ccc(F)c(F)c2)C1 [Example 138, 3-(((R)-7-((2S,4R)-2-(3,4-Difluorophenyl)-4-(methylamino)piperidine-1-carbonyl)-7-azaspiro[4.5]decan-10-yl)methyl)-6-(2-methoxyphenyl)pyrimidin-4(3H)-one]",< 10 nM
18,"CN[C@@H]1CCN(C(=O)N2CC[C@@H](Cn3ccc(-c4ccccc4)cc3=O)C3(CCCC3)C2)[C@H](c2ccc(F)cc2F)C1 [Example 95, 1-(((R)-7-((2S,4R)-2-(2,4-Difluorophenyl)-4-(methylamino)piperidine-1-carbonyl)-7-azaspiro[4.5]decan-10-yl)methyl)-4-phenylpyridin-2(1H)-one]",< 10 nM
19,"CSc1ncc2c(=O)n(CC3CCN(C(=O)N4CC[C@@H](N)C[C@H]4c4ccccc4)CC34CCCC4)ccc2n1 (stereo partly drawn) [Example 40, 6-((7-((2S,4R)-4-Amino-2-phenylpiperidine-1-carbonyl)-7-azaspiro[4.5]decan-10-yl)methyl)-2-(methylthio)pyrido [4,3-d]pyrimidin-5(6H)-one]",< 10 nM
